In ChEMBL document CHEMBL1148243, “Indoline derivatives as 5-HT(2C) receptor agonists” (Bioorg Med Chem Lett, 2004):

Legend:
[1] = target: T1, 5-hydroxytryptamine receptor 2B (Homo sapiens, UniProt P41595); test: Functional activity against human 5-hydroxytryptamine 2B receptor expressed in CHO cells using fluorometric imaging plate reader; type: cell-based
[2] = target: T2, 5-hydroxytryptamine receptor 2A (Homo sapiens, UniProt P28223); test: Relative efficacy against human 5-hydroxytryptamine 2A receptor expressed in CHO cells using fluorometric imaging plate reader relative to 10 uM 5-HT; type: functional, cell-based
[3] = target: T1, 5-hydroxytryptamine receptor 2B; test: Affinity for human 5-hydroxytryptamine 2B receptor expressed in mammalian cell line
[4] = target: T2, 5-hydroxytryptamine receptor 2A; test: Functional activity against human 5-hydroxytryptamine 2A receptor expressed in CHO cells using fluorometric imaging plate reader; type: cell-based
[5] = target: T2, 5-hydroxytryptamine receptor 2A; test: Affinity for human 5-hydroxytryptamine 2A receptor expressed in mammalian cell line
[6] = target: T3, 5-hydroxytryptamine receptor 2C (Homo sapiens, UniProt P28335); test: Functional activity against human 5-hydroxytryptamine 2C receptor expressed in CHO cells using fluorometric imaging plate reader; type: cell-based
T3 sequence (P28335 whole entry): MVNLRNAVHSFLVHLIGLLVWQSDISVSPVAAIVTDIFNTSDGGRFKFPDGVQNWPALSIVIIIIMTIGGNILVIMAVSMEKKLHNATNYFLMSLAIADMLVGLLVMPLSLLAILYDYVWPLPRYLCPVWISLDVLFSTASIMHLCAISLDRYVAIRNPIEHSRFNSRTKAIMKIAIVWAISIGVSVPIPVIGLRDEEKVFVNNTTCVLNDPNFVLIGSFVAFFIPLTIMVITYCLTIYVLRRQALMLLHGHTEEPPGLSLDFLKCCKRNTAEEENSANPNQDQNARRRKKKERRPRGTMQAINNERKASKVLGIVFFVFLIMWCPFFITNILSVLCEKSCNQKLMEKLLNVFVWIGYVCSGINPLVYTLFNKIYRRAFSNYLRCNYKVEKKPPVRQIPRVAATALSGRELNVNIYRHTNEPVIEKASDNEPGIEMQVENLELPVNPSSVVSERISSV

[7] = target: T3, 5-hydroxytryptamine receptor 2C; test: Affinity for human 5-hydroxytryptamine 2C receptor expressed in mammalian cell line
[8] = target: T1, 5-hydroxytryptamine receptor 2B; test: Relative efficacy against human 5-hydroxytryptamine 2B receptor expressed in CHO cells using fluorometric imaging plate reader relative to 10 uM 5-HT; type: functional, cell-based
Rattus norvegicus [9] = test: Ability of compound to decrease food intake in rats after subcutaneous administration; type: functional; details: sc, read-out: MED
Rattus norvegicus [10] = test: Ability of compound to decrease food intake in rats after oral administration; type: functional; details: read-out: MED

T2 sequence (P28223 whole entry): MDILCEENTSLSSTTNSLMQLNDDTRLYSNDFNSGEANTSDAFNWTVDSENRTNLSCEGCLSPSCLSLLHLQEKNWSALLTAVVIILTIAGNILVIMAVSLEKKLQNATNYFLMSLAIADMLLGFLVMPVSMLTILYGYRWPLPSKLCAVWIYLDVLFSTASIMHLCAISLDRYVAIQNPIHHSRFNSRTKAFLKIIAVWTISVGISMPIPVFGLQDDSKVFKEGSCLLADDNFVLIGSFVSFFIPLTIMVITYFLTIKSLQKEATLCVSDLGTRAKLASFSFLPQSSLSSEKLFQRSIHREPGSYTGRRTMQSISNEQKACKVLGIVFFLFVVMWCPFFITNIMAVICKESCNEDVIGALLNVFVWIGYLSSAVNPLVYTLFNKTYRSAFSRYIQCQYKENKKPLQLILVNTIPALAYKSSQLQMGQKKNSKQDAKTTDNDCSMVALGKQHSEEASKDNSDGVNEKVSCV
T1 sequence (P41595 whole entry): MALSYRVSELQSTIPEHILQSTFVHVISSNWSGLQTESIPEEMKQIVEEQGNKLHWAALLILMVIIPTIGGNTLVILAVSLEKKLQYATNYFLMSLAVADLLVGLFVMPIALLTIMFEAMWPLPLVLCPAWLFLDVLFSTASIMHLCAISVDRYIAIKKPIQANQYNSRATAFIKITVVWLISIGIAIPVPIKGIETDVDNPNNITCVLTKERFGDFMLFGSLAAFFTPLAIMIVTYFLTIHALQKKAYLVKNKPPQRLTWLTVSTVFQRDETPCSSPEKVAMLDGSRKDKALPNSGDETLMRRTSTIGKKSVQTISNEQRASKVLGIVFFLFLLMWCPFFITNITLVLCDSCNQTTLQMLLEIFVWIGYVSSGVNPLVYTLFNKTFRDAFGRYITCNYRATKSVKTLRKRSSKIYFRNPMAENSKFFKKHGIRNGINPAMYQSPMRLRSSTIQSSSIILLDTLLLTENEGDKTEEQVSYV

Structure (SMILES)	EC50 [1] [µM]	Relative efficacy [2] [%]	Ki [3] [µM]	EC50 [4] [µM]	Ki [5] [µM]	EC50 [6] [µM]	Ki [7] [µM]	Relative efficacy [8] [%]	minimal effective dose (Rattus norvegicus [9]) [mg/kg]	minimal effective dose (Rattus norvegicus [10]) [mg/kg]
C[C@H](N)CN1CCc2ccc3c(c21)CCCO3	0.036	71	0.355	0.125	0.395	0.028	0.038	67		
Clc1cccc(N2CCNCC2)c1 [CHLOROPHENYLPIPERAZINE]									1	10
CSc1cc2c(cc1F)CCN2C[C@H](C)N	0.0041	87	0.021	0.076	0.053	0.0067	0.0032	72	0.3	3
CSc1ccc2c(c1)N(C[C@H](C)N)CC2	0.01	72	0.089	0.164	0.171	0.026	0.0057	78		
C[C@H](N)CN1CCc2ccc(Br)cc21	0.011	54	0.046	0.719	0.351	0.044	0.024	78	3	30
CCSc1ccc2c(c1)N(C[C@H](C)N)CC2	0.072	71	0.189	0.378	0.184	0.04	0.016	67		
CCSc1cc2c(cc1F)CCN2C[C@H](C)N	0.031	80	0.062	0.181	0.058	0.021	0.0064	66		
C[C@H](N)CN1CCc2ccc(Cl)cc21	0.0065	55	0.054	0.602	0.364	0.044	0.013	76		
C[C@H](N)CN1CCc2cc(F)c(Cl)cc21	0.0073	66	0.031	0.367	0.167	0.031	0.014	77		
C[C@H](N)CN1CCc2ccc3c(c21)CCO3	0.003	81	0.049	0.062	0.112	0.0045	0.0087	74	0.1	1
C[C@H](N)CN1CCc2cc(F)c(C(F)(F)F)cc21	0.049	45	0.088	1.06	0.432	0.13	0.026	86		
C[C@H](N)CN1CCc2cc(F)c(I)cc21	0.022	54	0.038	0.432	0.139	0.064	0.017	71		
C[C@H](N)Cn1ccc2cc(F)c(Cl)cc21	0.0043	72	0.0051		0.038	0.018	0.0023	71		
